Among the data in patent US8097610B2, “Derivative having PPAR agonistic activity” (Shionogi & Co., Ltd., priority 2005, dated 2012) are EC50 values, retold here.

What all share (format): cell-based
One assay concerns the target T1, human PPARα (hPPARα) (Homo sapiens, UniProt Q07869).
T1 construct: δ: aa 139-C-end; α: aa 167-C-end; expressed in transfected cells; host or cells: CHO cells (transient transfection, FuGene)
T1 sequence (Q07869 167-468 limits assumed): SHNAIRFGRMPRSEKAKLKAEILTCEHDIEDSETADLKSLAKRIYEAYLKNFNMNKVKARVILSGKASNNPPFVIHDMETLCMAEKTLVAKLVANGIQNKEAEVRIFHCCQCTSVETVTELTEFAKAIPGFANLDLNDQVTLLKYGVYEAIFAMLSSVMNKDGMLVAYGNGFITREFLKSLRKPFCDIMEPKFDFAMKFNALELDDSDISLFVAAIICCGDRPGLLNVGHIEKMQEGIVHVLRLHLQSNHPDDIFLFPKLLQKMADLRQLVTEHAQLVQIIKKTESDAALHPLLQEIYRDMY
Kind of assay: Test for transcriptional activity of PPARα (GAL4 chimeric transcription factor reporter assay in CHO cells). The note with it: CHO cells transfected with GAL4-hPPARα LBD and pG5luc reporter; 24 hours; luciferase activity. From the text:
(§1) A chimeric transcription factor assay, which is commonly used to detect nuclear receptor activity, was employed to measure PPAR transcriptional activity. Specifically, two plasmids, one that expresses the fusion protein of DNA binding domain of yeast transcription factor GAL4 and a ligand binding domain of a receptor, and a reporter plasmid were transiently transfected to CHO cells. The activity of the promoter containing a recognition sequence of GAL4 coded on the reporter plasmid was used as a parameter to estimate the activity of the receptor.
(§2) Plasmid: The ligand binding domain of human PPARδ (hPPARδ) or α(hPPARα) (δ: aa 139-C-end; α: aa 167-C-end) is obtained by PCR amplification using Human Universal Quick-Clone cDNA (CLONTECH). […] Then, each obtained cDNA fragment was subcloned into pBIND vector (Promega) to construct a plasmid expressing the fusion protein with DNA binding domain of yeast transcription factor GAL4. pG5luc vector (Promega) was used as a reporter plasmid.
(§3) Cell culturing and transfection: CHO cells were cultured in 10% FBS-aMEM. With a 96-well plate (Costar), CHO cells, that were dispersed with trypsin treatment, 20000 cells per well and the two plasmids obtained by the above procedure, 25 ng per well, were transfected with FuGene Reagent (Roche) by following the instruction of the manufacture.
(§4) Measurement of the transcriptional activity: CHO cells 100 μl per well, which were transfected as above, were dispensed into the wells in which a test compound dissolved in DMSO 0.5 μl was spotted in advance. After the cells and a test compound were cultured together for 24 hours in a CO2 incubator, the luciferase activity was measured by adding luciferase substrates, PicaGene LT2.0 (Toyo ink) 100 μl per well. LUMINOUS CT-9000D (DIA-IATRON) is used to measure the activity.
A general note: Reporter assays use an easily measured gene product as a stand-in for the process of interest.

For another assay, the target named is T2, hPPARγ (Homo sapiens, UniProt P37231).
T2 construct: expressed in transfected cells
T2 sequence (P37231 238-503 limits assumed): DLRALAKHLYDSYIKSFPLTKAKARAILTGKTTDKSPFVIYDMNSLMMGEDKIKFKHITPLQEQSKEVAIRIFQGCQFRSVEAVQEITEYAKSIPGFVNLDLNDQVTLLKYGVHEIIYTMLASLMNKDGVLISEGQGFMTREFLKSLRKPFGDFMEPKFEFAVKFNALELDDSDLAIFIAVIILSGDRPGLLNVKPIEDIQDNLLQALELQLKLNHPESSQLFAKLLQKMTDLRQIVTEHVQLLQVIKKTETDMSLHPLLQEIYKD
The assay is described as follows: Transcriptional activity of PPARγ (Table 9; chimeric transcription factor assay).
Description: as §1, with “receptor. Cell culturing and transfection: CHO cells were cultured in 10% FBS-aMEM. With a 96-well plate (Costar), CHO cells, that were dispersed with trypsin treatment, 20000 cells per well and the two plasmids obtained by the above procedure, 25 ng per well, were transfected with FuGene Reagent (Roche) by following the instruction of the manufacture. […] LUMINOUS […]) is used to measure the activity.” for “receptor.”

A further assay concerns the target T3, human PPARδ (hPPARδ) (Homo sapiens, UniProt Q03181).
T3 construct: δ: aa 139-C-end; α: aa 167-C-end; expressed in transfected cells; host or cells: CHO cells (transient transfection, FuGene)
T3 sequence (Q03181 139-441 limits assumed): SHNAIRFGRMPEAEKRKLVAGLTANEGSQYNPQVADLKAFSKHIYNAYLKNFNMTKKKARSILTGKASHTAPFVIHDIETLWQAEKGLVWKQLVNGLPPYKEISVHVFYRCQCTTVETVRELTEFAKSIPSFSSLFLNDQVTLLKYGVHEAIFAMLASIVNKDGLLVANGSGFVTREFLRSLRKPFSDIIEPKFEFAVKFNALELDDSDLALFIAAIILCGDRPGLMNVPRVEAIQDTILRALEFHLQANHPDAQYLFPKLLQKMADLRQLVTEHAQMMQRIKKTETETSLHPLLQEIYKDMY
Kind of assay: Test for transcriptional activity of PPARδ (GAL4 chimeric transcription factor reporter assay in CHO cells). Conditions: CHO cells transfected with GAL4-hPPARδ LBD and pG5luc reporter; 24 hours; luciferase activity; concentration showing 1/2 of maximum luciferase activity.
Description: as §1, §2, §3, §4

SMILES strings stand for the structures.

Take `Cc1cc(CC(=O)O)cc(CN2CCN(c3nc4ccc(C(F)(F)F)cc4s3)[C@@H](CC(C)C)C2)c1` [Example 474]: the EC50 (as a rule, the concentration needed to bring the measured effect to its halfway point) on human PPARα (hPPARα) was 0.35 µM; at hPPARγ it was 0.2 µM; at human PPARδ (hPPARδ), 0.0045 µM.
With `O=C(O)Cc1ccc(CN2CCCN(c3nc4ccc(Cl)cc4s3)CC2)s1` [Example 503], the EC50 on human PPARα (hPPARα) was 1.5 µM; on hPPARγ, greater than 10 µM; at human PPARδ (hPPARδ), 0.91 µM.
`COc1ccc(CC(=O)O)cc1OCC1CCN(c2nc3ccc(Cl)cc3s2)CC1` [Example 519]: the figures for the EC50 on human PPARα (hPPARα), on hPPARγ and on human PPARδ (hPPARδ) were 0.54 µM, 0.8 µM and 0.02 µM, respectively.
Consider `CNc1cccc(-c2cnc(N3CCN(CCOc4cc(CC(=O)O)ccc4Cl)[C@@H](C)C3)s2)c1` [Example 562], for which the EC50 was greater than 10 µM at human PPARα (hPPARα), 1.9 µM on hPPARγ and 0.029 µM on human PPARδ (hPPARδ).
Turning to `Cc1cc(CN2C[C@@H](C)N(c3nc4ccc(C(F)(F)F)cc4s3)[C@@H](C)C2)cc(OCC(=O)O)c1` [Example 590], the results for the EC50 on human PPARα (hPPARα), at hPPARγ and at human PPARδ (hPPARδ) were greater than 10 µM, greater than 10 µM and 0.026 µM, respectively.
With `CCCCN(Cc1cccc(CC(=O)O)c1)C1CCN(c2nc3ccc(Cl)cc3s2)C1` (stereo not drawn) [Example 612, [3-[[butyl[1-(6-chlorobenzothiazole-2-yl)pyrrolidine-3-yl]amino]methyl]phenyl]acetic acid], the EC50 was 0.57 µM at human PPARα (hPPARα), 2.2 µM on hPPARγ and 0.049 µM at human PPARδ (hPPARδ).
The corresponding values for `O=C(O)Cc1cccc(OCCN(C2CCCCC2)C2CCN(c3nc4ccc(Cl)cc4s3)C2)c1` (stereo not drawn) [Example 630] are 2.6 µM, 4.2 µM and 0.023 µM.
As to `C[C@@H]1CN(C2(CCOc3cc(Cl)cc(CC(=O)O)c3)CCN(c3nc4ccc(Cl)cc4s3)CC2)C[C@H](C)O1` [Example 652], the EC50 at human PPARα (hPPARα) was greater than 10 µM; at hPPARγ it was greater than 10 µM; at human PPARδ (hPPARδ), 0.28 µM.
Take `C[C@H]1CN(c2nc3ccc(Cl)cc3s2)CCN1CCOc1cc(Cl)cc(CC(=O)O)c1` [Example 679]: the values for the EC50 on human PPARα (hPPARα), at hPPARγ and at human PPARδ (hPPARδ) were 0.96 µM, 0.58 µM and 0.013 µM, respectively.
Taken in the same sequence, the figures for `C[C@@H]1CN(c2nc3ccc(Cl)cc3s2)C[C@H](C)N1CCOc1ccc(Cl)c(CC(=O)O)c1` [Example 699] were 1 µM, 0.76 µM and 0.041 µM.
As for `C[C@@H]1CN(c2ccc(C(F)(F)F)cn2)C[C@H](C)N1CCOc1cc(CC(=O)O)ccc1Cl` [Example 707], the EC50 at human PPARα (hPPARα) is 2.5 µM; at hPPARγ it was 3.3 µM; on human PPARδ (hPPARδ), 0.019 µM.
On to `CCCC[C@@H]1CN(Cc2cc(C)cc(OCC(=O)O)c2)CCN1c1nc2ccc(OC(F)(F)F)cc2s1` [Example 854, [3-[(R)-3-butyl-4-(6-trifluoromethoxybenzothiazole-2-yl)-piperazine-1-ylmethyl]-5-methylphenoxy]acetic acid], for which the EC50 on human PPARα (hPPARα) is greater than 10 µM; at hPPARγ it was greater than 10 µM; at human PPARδ (hPPARδ) it was 0.0044 µM.
